Assay results: patent US10597388B2, “Pyridazinone herbicides” (FMC CORPORATION, priority 2014, dated 2020)

How the values were obtained:
Type in all cases: in vivo
kochia (Kochia scoparia) = assay: Test A greenhouse herbicide test, pre- and postemergence
Method in brief: (§1)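 Visual injury ratings, 0 (no effect) to 100 (complete control), versus untreated plants after roughly 10 d in a greenhouse. Compounds, formulated in a surfactant-containing non-phytotoxic solvent, were sprayed on loam–sand soil after sowing (pre) or on one- to two-leaf plants 2–10 cm tall (post).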

[1] = system: pigweed (Amaranthus retroflexus); assay: as above
Method in brief: as §1

[2] = system: foxtail, giant (giant foxtail, Setaria faberii); assay: as above
Method in brief: as §1

[3] = system: barnyardgrass (Echinochloa crus-galli); assay: as above
Method in brief: as §1

[4] = system: ragweed (common ragweed, Ambrosia elatior); assay: as above
Method in brief: as §1

[5] = system: ryegrass, Italian (Italian ryegrass, Lolium multiflorum); assay: as above
Method in brief: as §1

[6] = system: wheat (Triticum aestivum); assay: as above; conditions: Postemergence; for Plant response rating, Wheat: 125 g ai/ha, 0 to 100 scale where 0 is no effect and 100 is complete control; for Wheat plant response rating: 500 g ai/ha, 0 to 100 scale, 0 is no effect, 100 is complete control
Method in brief: as §1

[7] = system: ryegrass, Italian (Italian ryegrass, Lolium multiflorum); assay: Test C greenhouse herbicide test, pre- and postemergence
Method in brief: (§2)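 Greenhouse pots; pre-em on seeded loam:sand blend, post-em on 2–18 cm plants (1–4 leaf) in sphagnum peat/vermiculite medium. Formulation: non-phytotoxic solvent + surfactant. Read-out: visual % control (0–100) vs controls at 13–15 d.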

corn (Zea mays) = assay: as above
Method in brief: as §2

[8] = system: galium (catchweed bedstraw, Galium aparine); assay: Test A greenhouse herbicide test, postemergence; conditions: for Plant response rating, Galium: 125 g ai/ha, 0 to 100 scale where 0 is no effect and 100 is complete control; for Galium plant response rating: 500 g ai/ha, 0 to 100 scale, 0 is no effect, 100 is complete control
Method in brief: (§3)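 Scores are visual injury ratings from 0 (no effect) to 100 (complete control) versus untreated plants, taken roughly 10 d after treatment in the greenhouse. Treatment was postemergence, on one- to two-leaf plants 2–10 cm high growing in a loam soil/sand mix.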

[9] = system: blackgrass (Alopecurus myosuroides); assay: Test A greenhouse herbicide test, postemergence; conditions: for Plant response rating, Blackgrass: 125 g ai/ha, 0 to 100 scale where 0 is no effect and 100 is complete control; for Blackgrass plant response rating: 500 g ai/ha, 0 to 100 scale, 0 is no effect, 100 is complete control
Method in brief: as §3

[10] = Postemergence, 125 g ai/ha, 0 to 100 scale where 0 is no effect and 100 is complete control
[11] = Postemergence, 500 g ai/ha, 0 to 100 scale, 0 is no effect, 100 is complete control
[12] = Preemergence, 125 g ai/ha, 0 to 100 scale where 0 is no effect and 100 is complete control
[13] = Preemergence, 500 g ai/ha, 0 to 100 scale where 0 is no effect and 100 is complete control
[14] = Postemergence, 125 g ai/ha, scale 0 to 100, 0 is no effect, 100 is complete control
[15] = Postemergence, 250 g ai/ha, scale 0 to 100, 0 no effect, 100 complete control, 13 to 15 d
[16] = Preemergence, 31 g ai/ha, scale 0 to 100, 0 is no effect, 100 is complete control
[17] = Preemergence, 62 g ai/ha, scale 0 to 100, 0 is no effect, 100 is complete control
[18] = Preemergence, 125 g ai/ha, scale 0 to 100, 0 is no effect, 100 is complete control
[19] = Preemergence, 250 g ai/ha, scale 0 to 100 (0 no effect, 100 complete control)
[20] = postemergence, 62 g ai/ha, scale 0 to 100, 0 no effect, 100 complete control
[21] = Postemergence, 31 g ai/ha, 0 to 100 scale (0 no effect, 100 complete control)

Structure (SMILES): COC(=O)Oc1c(C)nn(C)c(=O)c1-c1c(C)sc2c(C)cc(C)cc12 [Compound 81]
- Plant response rating, Kochia (kochia (Kochia scoparia); [10]): 60
- Kochia plant response rating (kochia (Kochia scoparia); [11]): 100
- Kochia plant response rating (kochia (Kochia scoparia); [12]): 30
- Plant response rating, Kochia (kochia (Kochia scoparia); [13]): 100
- Plant response rating, Pigweed [1, 10]: 100
- Pigweed plant response rating [1, 11]: 100
- Pigweed plant response rating [1, 12]: 100
- Plant response rating, Pigweed [1, 13]: 100
- Plant response rating, Foxtail, Giant [2, 10]: 90
- Foxtail, Giant plant response rating [2, 11]: 100
- Foxtail, Giant plant response rating [2, 12]: 100
- Plant response rating, Foxtail, Giant [2, 13]: 100
- Plant response rating, Barnyardgrass [3, 10]: 30
- Barnyardgrass plant response rating [3, 11]: 90
- Barnyardgrass plant response rating [3, 12]: 90
- Plant response rating, Barnyardgrass ([3]; Preemergence, 500 g ai/ha, 0 to 100 scale, 0 no effect, 100 complete control): 100
- Plant response rating, Ragweed [4, 10]: 90
- Ragweed plant response rating [4, 11]: 100
- Ragweed plant response rating [4, 12]: 90
- Plant response rating, Ragweed [4, 13]: 100
- Plant response rating, Ryegrass, Italian [5, 10]: 100
- Ryegrass, Italian plant response rating [5, 11]: 100
- Ryegrass, Italian plant response rating [5, 12]: 100
- Plant response rating, Ryegrass, Italian [5, 13]: 100
- Plant response rating, Wheat [6]: 0
- Wheat plant response rating [6]: 0
- Plant response rating, Ryegrass, Italian [7, 14]: 90
- Plant response rating, Ryegrass, Italian [7, 15]: 90
- Plant response rating, Ryegrass, Italian [7, 16]: 80
- Plant response rating, Ryegrass, Italian [7, 17]: 90
- Plant response rating, Ryegrass, Italian [7, 18]: 90
- Ryegrass, Italian plant response rating [7, 19]: 90
- Ryegrass, Italian plant response rating [7, 20]: 85
- Corn plant response rating (corn (Zea mays); [21]): 0
- Plant response rating, Corn (corn (Zea mays); [14]): 10
- Plant response rating, Corn (corn (Zea mays); [15]): 0
- Plant response rating, Corn (corn (Zea mays); [16]): 0
- Plant response rating, Corn (corn (Zea mays); [17]): 10
- Plant response rating, Corn (corn (Zea mays); [18]): 20
- Corn plant response rating (corn (Zea mays); [19]): 30
- Corn plant response rating (corn (Zea mays); [20]): 5
- Plant response rating, Galium [8]: 100
- Galium plant response rating [8]: 100
- Plant response rating, Blackgrass [9]: 90
- Blackgrass plant response rating [9]: 90

Structure (SMILES): CCOC(=O)Oc1c(C)nn(C)c(=O)c1-c1c(C)sc2ccc(C)cc12 [Compound 82]
- Plant response rating, Kochia (kochia (Kochia scoparia); [10]): 30
- Kochia plant response rating (kochia (Kochia scoparia); [11]): 80
- Kochia plant response rating (kochia (Kochia scoparia); [12]): 70
- Plant response rating, Kochia (kochia (Kochia scoparia); [13]): 90
- Plant response rating, Pigweed [1, 10]: 60
- Pigweed plant response rating [1, 11]: 80
- Pigweed plant response rating [1, 12]: 100
- Plant response rating, Pigweed [1, 13]: 100
- Plant response rating, Foxtail, Giant [2, 10]: 50
- Foxtail, Giant plant response rating [2, 11]: 70
- Foxtail, Giant plant response rating [2, 12]: 70
- Plant response rating, Foxtail, Giant [2, 13]: 90
- Plant response rating, Barnyardgrass [3, 10]: 30
- Barnyardgrass plant response rating [3, 11]: 50
- Barnyardgrass plant response rating [3, 12]: 40
- Plant response rating, Barnyardgrass [3, 13]: 70
- Plant response rating, Ragweed [4, 10]: 70
- Ragweed plant response rating [4, 11]: 70
- Ragweed plant response rating [4, 12]: 80
- Plant response rating, Ragweed [4, 13]: 80
- Plant response rating, Ryegrass, Italian [5, 10]: 70
- Ryegrass, Italian plant response rating [5, 11]: 80
- Ryegrass, Italian plant response rating [5, 12]: 80
- Plant response rating, Ryegrass, Italian [5, 13]: 90
- Plant response rating, Wheat [6]: 0
- Wheat plant response rating [6]: 0
- Plant response rating, Ryegrass, Italian [7, 14]: 85
- Plant response rating, Ryegrass, Italian [7, 15]: 85
- Plant response rating, Ryegrass, Italian [7, 16]: 80
- Plant response rating, Ryegrass, Italian [7, 17]: 85
- Plant response rating, Ryegrass, Italian [7, 18]: 85
- Ryegrass, Italian plant response rating [7, 19]: 90
- Ryegrass, Italian plant response rating [7, 20]: 85
- Corn plant response rating (corn (Zea mays); [21]): 35
- Plant response rating, Corn (corn (Zea mays); [14]): 10
- Plant response rating, Corn (corn (Zea mays); [15]): 5
- Plant response rating, Corn (corn (Zea mays); [16]): 0
- Plant response rating, Corn (corn (Zea mays); [17]): 0
- Plant response rating, Corn (corn (Zea mays); [18]): 20
- Corn plant response rating (corn (Zea mays); [19]): 25
- Corn plant response rating (corn (Zea mays); [20]): 30
- Plant response rating, Galium [8]: 90
- Galium plant response rating [8]: 90
- Plant response rating, Blackgrass [9]: 70
- Blackgrass plant response rating [9]: 70

Structure (SMILES): CCOC(=O)Oc1c(C)nn(C)c(=O)c1-c1c(C)sc2c(C)cc(C)cc12 [Compound 83]
- Plant response rating, Kochia (kochia (Kochia scoparia); [10]): 70
- Kochia plant response rating (kochia (Kochia scoparia); [11]): 100
- Kochia plant response rating (kochia (Kochia scoparia); [12]): 30
- Plant response rating, Kochia (kochia (Kochia scoparia); [13]): 100
- Plant response rating, Pigweed [1, 10]: 100
- Pigweed plant response rating [1, 11]: 100
- Pigweed plant response rating [1, 12]: 100
- Plant response rating, Pigweed [1, 13]: 100
- Plant response rating, Foxtail, Giant [2, 10]: 90
- Foxtail, Giant plant response rating [2, 11]: 100
- Foxtail, Giant plant response rating [2, 12]: 100
- Plant response rating, Foxtail, Giant [2, 13]: 100
- Plant response rating, Barnyardgrass [3, 10]: 40
- Barnyardgrass plant response rating [3, 11]: 90
- Barnyardgrass plant response rating [3, 12]: 70
- Plant response rating, Barnyardgrass [3, 13]: 100
- Plant response rating, Ragweed [4, 10]: 90
- Ragweed plant response rating [4, 11]: 100
- Ragweed plant response rating [4, 12]: 90
- Plant response rating, Ragweed [4, 13]: 100
- Plant response rating, Ryegrass, Italian [5, 10]: 90
- Ryegrass, Italian plant response rating [5, 11]: 100
- Ryegrass, Italian plant response rating [5, 12]: 100
- Plant response rating, Ryegrass, Italian [5, 13]: 100
- Plant response rating, Wheat [6]: 0
- Wheat plant response rating [6]: 20
- Plant response rating, Ryegrass, Italian [7, 14]: 90
- Plant response rating, Ryegrass, Italian [7, 15]: 95
- Plant response rating, Ryegrass, Italian [7, 16]: 90
- Plant response rating, Ryegrass, Italian [7, 17]: 90
- Plant response rating, Ryegrass, Italian [7, 18]: 90
- Ryegrass, Italian plant response rating [7, 19]: 90
- Ryegrass, Italian plant response rating [7, 20]: 90
- Corn plant response rating (corn (Zea mays); [21]): 5
- Plant response rating, Corn (corn (Zea mays); [14]): 10
- Plant response rating, Corn (corn (Zea mays); [15]): 10
- Plant response rating, Corn (corn (Zea mays); [16]): 0
- Plant response rating, Corn (corn (Zea mays); [17]): 0
- Plant response rating, Corn (corn (Zea mays); [18]): 0
- Corn plant response rating (corn (Zea mays); [19]): 10
- Corn plant response rating (corn (Zea mays); [20]): 5
- Plant response rating, Galium [8]: 100
- Galium plant response rating [8]: 100
- Plant response rating, Blackgrass [9]: 90
- Blackgrass plant response rating [9]: 100

Structure (SMILES): Cc1cc(C)c2sc(C)c(-c3c(OC(=O)OCCCl)c(C)nn(C)c3=O)c2c1 [Compound 85]
- Plant response rating, Kochia (kochia (Kochia scoparia); [10]): 30
- Kochia plant response rating (kochia (Kochia scoparia); [11]): 70
- Kochia plant response rating (kochia (Kochia scoparia); [12]): 0
- Plant response rating, Kochia (kochia (Kochia scoparia); [13]): 30
- Plant response rating, Pigweed [1, 10]: 90
- Pigweed plant response rating [1, 11]: 100
- Pigweed plant response rating [1, 12]: 100
- Plant response rating, Pigweed [1, 13]: 100
- Plant response rating, Foxtail, Giant [2, 10]: 90
- Foxtail, Giant plant response rating [2, 11]: 90
- Foxtail, Giant plant response rating [2, 12]: 100
- Plant response rating, Foxtail, Giant [2, 13]: 100
- Plant response rating, Barnyardgrass [3, 10]: 30
- Barnyardgrass plant response rating [3, 11]: 80
- Barnyardgrass plant response rating [3, 12]: 70
- Plant response rating, Barnyardgrass [3, 13]: 100
- Plant response rating, Ragweed [4, 10]: 90
- Ragweed plant response rating [4, 11]: 90
- Ragweed plant response rating [4, 12]: 90
- Plant response rating, Ragweed [4, 13]: 90
- Plant response rating, Ryegrass, Italian [5, 10]: 90
- Ryegrass, Italian plant response rating [5, 11]: 90
- Ryegrass, Italian plant response rating [5, 12]: 100
- Plant response rating, Ryegrass, Italian [5, 13]: 100
- Plant response rating, Wheat [6]: 0
- Wheat plant response rating [6]: 0
- Plant response rating, Ryegrass, Italian [7, 14]: 90
- Plant response rating, Ryegrass, Italian [7, 15]: 95
- Plant response rating, Ryegrass, Italian [7, 16]: 85
- Plant response rating, Ryegrass, Italian [7, 17]: 85
- Plant response rating, Ryegrass, Italian [7, 18]: 90
- Ryegrass, Italian plant response rating [7, 19]: 90
- Ryegrass, Italian plant response rating [7, 20]: 90
- Corn plant response rating (corn (Zea mays); [21]): 0
- Plant response rating, Corn (corn (Zea mays); [14]): 0
- Plant response rating, Corn (corn (Zea mays); [15]): 5
- Plant response rating, Corn (corn (Zea mays); [16]): 0
- Plant response rating, Corn (corn (Zea mays); [17]): 10
- Plant response rating, Corn (corn (Zea mays); [18]): 0
- Corn plant response rating (corn (Zea mays); [19]): 10
- Corn plant response rating (corn (Zea mays); [20]): 0
- Plant response rating, Galium [8]: 90
- Galium plant response rating [8]: 100
- Plant response rating, Blackgrass [9]: 90
- Blackgrass plant response rating [9]: 90
